Measurements as given in the NIST ThermoML archive (doi:10.1016/j.jct.2009.02.007).

How the values were obtained:
[1] = 101.33 kPa, Liquid, Vibrating tube method
[2] = xn = mol fraction of the nth substance listed; details: 101 kPa, Liquid, Vibrating tube method

O=Cc1ccccc1 [benzaldehyde]
[1]
Details | mass density [kg/m3]
298.15 K | 1044.2
303.15 K | 1040.21
308.15 K | 1036.15
313.15 K | 1032.15

O=Cc1ccccc1 [benzaldehyde] + CCCCn1cc[n+](C)c1.F[B-](F)(F)F
mass density [kg/m3], [2]
Details | x2 = 0.1001 | x2 = 0.1998 | x2 = 0.2997 | x2 = 0.4 | x2 = 0.4999 | x2 = 0.5998 | x2 = 0.6999 | x2 = 0.7971 | x2 = 0.8991
298.15 K | 1078.64 | 1105.45 | 1127.3 | 1145.56 | 1160.76 | 1173.77 | 1184.7 | 1193.8 | 1202.44
303.15 K | 1072.78 | 1098.6 | 1119.46 | 1136.76 | 1151.14 | 1163.4 | 1173.86 | 1182.59 | 1190.51
308.15 K | 1068.6 | 1094.81 | 1116.11 | 1133.67 | 1148.32 | 1160.74 | 1171.52 | 1180.59 | 1188.53
313.15 K | 1064.7 | 1090.93 | 1112.3 | 1129.92 | 1144.5 | 1156.92 | 1167.64 | 1176.6 | 1184.48

CCCCn1cc[n+](C)c1.F[B-](F)(F)F [1-butyl-3-methylimidazolium tetrafluoroborate]
[1]
Details | mass density [kg/m3]
298.15 K | 1211.03
303.15 K | 1197.45
308.15 K | 1194.6
313.15 K | 1190.44
